Reference: patent publication US20240262814A1, “MODULATORS OF TREX1” (Constellation Pharmaceuticals, Inc., priority 2021, published 2024)

Tests used:
[1] = target: T1, human TREX1 (Homo sapiens, UniProt Q9NSU2); assay: hTREX1 Biochemical Assay (fluorescence, dsDNA substrate degradation); conditions: full length human TREX1, 4 h pre-incubation, 18 h reaction at 25° C.
T1 construct: N-terminally His-Tev tagged full length human TREX1; made in house; host or cells: E. coli
T1 sequence (Q9NSU2 1-314): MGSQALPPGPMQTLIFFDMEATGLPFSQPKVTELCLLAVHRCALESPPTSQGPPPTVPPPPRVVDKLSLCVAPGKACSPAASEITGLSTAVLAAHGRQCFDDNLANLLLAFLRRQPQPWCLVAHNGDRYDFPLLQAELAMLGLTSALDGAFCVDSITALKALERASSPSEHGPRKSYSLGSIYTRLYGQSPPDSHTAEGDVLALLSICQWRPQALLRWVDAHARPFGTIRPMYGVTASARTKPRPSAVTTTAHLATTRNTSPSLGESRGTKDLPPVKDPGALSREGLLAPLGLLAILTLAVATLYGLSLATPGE
Description: (§1) Degradation of the dsDNA liberates free fluorophore to produce a fluorescent signal. Specifically, 7.5 μL of N-terminally His-Tev tagged full length human TREX1 (expressed in E. coli and purified in house) in reaction buffer (50 mM Tris, 150 mM NaCl, 2 mM DTT, 0.1 mg/mL BSA, 0.01% (w/v) Tween-20, 5 mM MgCl2, pH 7.4) was added to a 384-well Black ProxiPlate Plus (PerkinElmer) which already contained compound (150 nL) at varying concentrations as a 10 point dose-response in DMSO. The plate was incubated at 25° C. for 4 hours. Reactions were initiated by adding 7.5 μL of dsDNA substrate (Strand A: 5′ TEX615/GCT AGG CAG 3′; Strand B: 5′ CTG CCT AGC/IAbRQSp (Integrated DNA Technologies)) in reaction buffer. Final concentrations were 4 pM TREX1, 60 nM dsDNA substrate in reaction buffer with 1.0% DMSO (v/v). After 18 hours at 25° C., reactions were quenched by the addition of 2 p L of 500 mM EDTA. Final concentrations in the quenched reaction were 3.5 pM TREX1, 53 nM DNA and 59 mM EDTA in a volume of 17 μL. After a 5-minute incubation at room temperature, plates were read in an EnVision plate reader (PerkinElmer) measuring fluorescence at 615 nm following excitation w/ 570 nm light. IC50 values were calculated by comparing the measured fluorescence at 615 nm relative to control wells pre-quenched w/ EDTA (100% inhibition) and no inhibitor (0% inhibition) controls as using non-linear least square four parameter fits and either Genedata or GraphPad Prism (GraphPad Software, Inc.).

[2] = target: T2, human TREX2 (Homo sapiens, UniProt Q9BQ50); assay: hTREX2 Biochemical Assay (selectivity hTREX1 vs hTREX2); conditions: biochemical selectivity for hTREX1 vs hTREX2
T2 construct: human TREX2 (residues M44-A279, expressed in E. coli); made in house; host or cells: E. coli
T2 sequence (Q9BQ50 44-279 isoform Q9BQ50-1): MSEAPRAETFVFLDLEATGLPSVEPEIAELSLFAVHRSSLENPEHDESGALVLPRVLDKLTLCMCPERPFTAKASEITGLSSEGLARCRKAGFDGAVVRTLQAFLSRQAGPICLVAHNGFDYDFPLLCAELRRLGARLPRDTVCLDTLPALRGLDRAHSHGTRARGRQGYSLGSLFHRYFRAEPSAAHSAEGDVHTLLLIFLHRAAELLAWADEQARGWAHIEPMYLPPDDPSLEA
Description: Degradation of the dsDNA liberates free fluorophore to produce a fluorescent signal. Specifically, 7.5 p L of N-terminally His-Tev tagged human TREX2 (residues M44-A279, expressed in E. coli and purified in house) in reaction buffer (50 mM Tris, 150 mM NaCl, 2 mM DTT, 0.1 mg/mL BSA, 0.01% (w/v) Tween-20, 5 mM MgCl2, pH 7.4) was added to a 384-well Black ProxiPlate Plus (PerkinElmer) which already contained compound (150 nL) at varying concentrations as a 10 point dose-response in DMSO. The plate was incubated at 25° C. for 4 hours. Reactions were initiated by adding 7.5 μL of dsDNA substrate (Strand A: 5′ TEX615/GCT AGG CAG 3′; Strand B: 5′ CTG CCT AGC/IAbRQSp (IDT)) in reaction buffer. Final concentrations were 50 pM TREX2, 60 nM dsDNA substrate in reaction buffer with 1.0% DMSO (v/v). After 18 hours at 25° C., reactions were quenched by the addition of 2 μL of 500 mM EDTA. Final concentrations in the quenched reaction mixture were 44 pM TREX2, 53 nM DNA and 59 mM EDTA in a volume of 17 μL. After a 5-minute incubation at room temperature, plates were read in an EnVision plate reader (PerkinElmer) measuring fluorescence at 615 nm following excitation w/ 570 nm light. IC50 values were calculated by comparing the measured fluorescence at 615 nm relative to control wells pre-quenched w/ stop buffer (100% inhibition) and no inhibitor (0% inhibition) controls as using non-linear least square four parameter fits and either Genedata or GraphPad Prism (GraphPad Software, Inc.).

[3] = target: T3, mouse TREX1 (Mus musculus, UniProt Q91XB0); assay: mTREX1 Biochemical Assay (fluorescence, dsDNA substrate degradation); conditions: full length mouse TREX1, 4 h pre-incubation, 18 h reaction at 25° C.
T3 construct: N-terminally His-Tev tagged full length mouse TREX1; made in house; host or cells: E. coli
T3 sequence (Q91XB0 1-314): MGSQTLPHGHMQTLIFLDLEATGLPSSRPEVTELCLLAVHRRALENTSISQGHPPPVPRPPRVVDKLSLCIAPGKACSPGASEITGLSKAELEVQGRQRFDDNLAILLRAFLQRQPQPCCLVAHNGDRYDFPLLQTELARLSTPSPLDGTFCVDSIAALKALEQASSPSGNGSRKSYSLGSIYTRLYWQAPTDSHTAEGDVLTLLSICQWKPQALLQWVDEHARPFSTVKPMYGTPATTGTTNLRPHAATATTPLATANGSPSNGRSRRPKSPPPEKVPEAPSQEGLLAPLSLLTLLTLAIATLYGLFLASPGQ
Description: as §1, with “Specifically, 7.5 p L of N-terminally” for “Specifically, 7.5 μL of N-terminally”, “full length mouse TREX1 (expressed” for “full length human TREX1 (expressed”, “concentrations were 6 pM TREX1,” for “concentrations were 4 pM TREX1,”, “reaction were 5.3 pM TREX1,” for “reaction were 3.5 pM TREX1,”, “of 17 p L. After a” for “of 17 μL. After a”

| Compound | IC50 [1] | hTREX1 vs hTREX2 selectivity [2] | IC50 [3] |
| --- | --- | --- | --- |
| CC(c1nc(C(=O)Nc2cnoc2)c(O)c(=O)n1C)C(c1ccccc1)c1cc(Cl)ccc1C#N (single isomer, unassigned) [Example 8 Isomer 4] | 10 to 100 nM | B (B = 25 to 50 fold selective for hTREX1) | > 10 nM |
| CC(c1nc(C(=O)Nc2cnoc2)c(O)c(=O)n1C)C(c1ccccc1)c1ccc(F)cc1C#N (single isomer, unassigned) [Example 7 Isomer 1] | < 1 nM | C (C = >50 fold selective for hTREX1) | > 10 nM |
| CC(c1nc(C(=O)Nc2cnoc2)c(O)c(=O)[nH]1)C(c1ccccc1C#N)c1ccccc1C#N (single isomer, unassigned) [Example 5 Isomer 1, 2-(1,1-bis(2-cyanophenyl)propan-2-yl)-5-hydroxy-N-(isoxazol-4-yl)-6-oxo-1,6-dihydropyrimidine-4-carboxamide] | < 1 nM | B (B = 25 to 50 fold selective for hTREX1) | 1 to 10 nM |
| CC(c1nc(C(=O)Nc2cnoc2)c(O)c(=O)n1C)C(c1ccc(F)cc1F)c1ccccc1C#N (single isomer, unassigned) [Example 13 Isomer 3] | 10 to 100 nM | B (B = 25 to 50 fold selective for hTREX1) | > 10 nM |
| Cn1c(C(F)(F)C(c2ccccc2)c2ccccc2)nc(C(=O)Nc2cnoc2)c(O)c1=O [Example 19, 2-(1,1-difluoro-2,2-diphenylethyl)-5-hydroxy-N-(isoxazol-4-yl)-1-methyl-6-oxo-1,6-dihydropyrimidine-4-carboxamide] | 10 to 100 nM | B (B = 25 to 50 fold selective for hTREX1) | > 10 nM |
| C[C@H](c1nc(C(=O)Nc2cnoc2)c(O)c(=O)n1C)[C@H](c1ccccc1)c1ccccc1Cl (single isomer, unassigned) [Example 2 Isomer 1, 2-[1-(2-chlorophenyl)-1-phenylpropan-2-yl]-5-hydroxy-1-methyl-N-(1,2-oxazol-4-yl)-6-oxopyrimidine-4-carboxamide] | 1 to 10 nM | A (A = <25 fold selective for hTREX1) | > 10 nM |

More lines, now with the values ahead:

| IC50 [1] | hTREX1 vs hTREX2 selectivity [2] | IC50 [3] | Compound |
| --- | --- | --- | --- |
| > 100 nM | A (A = <25 fold selective for hTREX1) | > 10 nM | C[C@H](c1nc(C(=O)Nc2cnoc2)c(O)c(=O)n1C)[C@H](c1ccccc1)c1ccc(C(=O)N(C)C)cc1C#N (single isomer, unassigned) [Example 16 Isomer 3, 2-(1-(2-cyano-4-(dimethylcarbamoyl)phenyl)-1-phenylpropan-2-yl)-5-hydroxy-N-(isoxazol-4-yl)-1-methyl-6-oxo-1,6-dihydropyrimidine-4-carboxamide] |
| > 100 nM | A (A = <25 fold selective for hTREX1) | > 10 nM | C[C@H](c1nc(C(=O)Nc2cnoc2)c(O)c(=O)n1C)[C@H](c1ccccc1)c1ccccc1C(F)(F)F (single isomer, unassigned) [Example 14 Isomer 1, 5-Hydroxy-N-(isoxazol-4-yl)-1-methyl-6-oxo-2-(1-phenyl-1-(2-(trifluoromethyl)phenyl)propan-2-yl)-1,6-dihydropyrimidine-4-carboxamide] |
| > 100 nM | A (A = <25 fold selective for hTREX1) | > 10 nM | Cn1c(C(C)(C)C(c2ccccc2)c2ccccc2)nc(C(=O)Nc2cnoc2)c(O)c1=O [Example B, 5-hydroxy-N-(isoxazol-4-yl)-1-methyl-2-(2-methyl-1,1-diphenylpropan-2-yl)-6-oxo-1,6-dihydropyrimidine-4-carboxamide] |
| > 100 nM | A (A = <25 fold selective for hTREX1) | > 10 nM | Cn1c([C@H](C(c2ccccc2)c2ccccc2)C(F)(F)F)nc(C(=O)Nc2cnoc2)c(O)c1=O (single isomer, unassigned) [Example 20 Isomer 2, 5-Hydroxy-N-(isoxazol-4-yl)-1-methyl-6-oxo-2-(1,1,1-trifluoro-3,3-diphenylpropan-2-yl)-1,6-dihydropyrimidine-4-carboxamide] |
